This is an account of results in US5321024A, “Antiviral pharmaceutical composition for treating lymphocytes” (Godecke Aktiengesellschaft, priority 1991, dated 1994).

Each structure is given as a SMILES string.

What is called EC50 is the midpoint of the concentration-response curve. Usually IC50 stands for the concentration that gives 50% inhibition. Low values mean inhibition by little substance, high ones a need for much substance.

Experiment [1] has as its system HIV viruses (cell line C8166). Put plainly: in vitro anti-HIV protection assay in cell line C8166. The experiment is classed as cell-based. The text has this: (§1) This is usually substantially more difficult to protect so, for example, in the case of the use of 3-azide-3'-deoxythymidine (AZT), a 100-fold higher dosage is needed than in the use of the compound of the present invention.
(§2) The above assay is described in the Journal of the National Cancer Institute, Vol. 81, No. 8, Apr. 19, 1989.

A further experiment has as its system HIV viruses. Put plainly: CPE cell line assay against p24 antigen. As to conditions: Human immunodeficiency virus 1, in vitro. Type of experiment: cell-based.
Text: as §1, §2

For experiment [2], the system named is HIV viruses (CEM-IW cell line). Briefly: in vitro anti-HIV assay in CEM-IW cell line. The experiment is classed as cell-based. As to conditions: Human immunodeficiency virus 1.
Text: as §1, §2

Another experiment has as its target reverse transcriptase (Human immunodeficiency virus type 1 group M subtype B, UniProt P04585). Briefly: inhibition of reverse transcriptase. Conditions: in vitro. Type of experiment: biochemical.
Text: as §1

Experiment [3] deals with HIV viruses (T-lymphocytes). Put plainly: protection of T-lymphocytes against the cytopathic effect of HIV viruses. The experiment is classed as cell-based.

For the compound `Cc1cn([C@H]2C[C@H](N=[N+]=[N-])[C@@H](CO)O2)c(=O)[nH]c1=O` [AZT, 3-azide-3'-deoxythymidine, reference compound], the “dosage needed relative to the compound of the present invention” value in experiment [1] (cell line C8166, higher dosage needed) amounted to 100 fold.
Consider `O=S1(c2ccccc2)=NC(=S)Nc2ccccc21` (stereo not drawn) [Example 1, 3,4-Dihydro-1-phenyl-3-thio-1,2,4-benzothiadiazine 1-oxide], for which the EC50 was about 1650 nM with HIV viruses and about 2000 nM in experiment [2]. In addition, half-maximal inhibition against reverse transcriptase (IC50) required 2000 nM. The “values found for the cell line C8166 compared with the other cell line values” in experiment [1] (cell line C8166, usually substantially more difficult to protect) was “comparable values”. For the same compound, in experiment [3], the “protection of T-lymphocytes against the cytopathic effect of HIV viruses” value is “complete protection”.
